Earlier results, collected in patent publication US6676956B1, “Oil-in-water emulsion for protecting human organs against peroxidation” (Fresenius Kabi Austria GmbH, priority 1998, dated 2004).
Blank lines part the entries; values can stand above or below the molecule they belong to.

Experiments:
skeletal muscles = settings: 500 mg given directly before reperfusion
[1] = per 1 g of the form

Molecule: CC(=O)Oc1c(C)c(C)c2c(c1C)CCC(C)(CCCC(C)CCCC(C)CCCC(C)C)O2 (racemic) [all-rac-tocopherolacetate]
increase in lipid peroxides in the serum (TBARS) (skeletal muscles): prevented
increase in serum creatine-phosphokinase during the reperfusion phase (skeletal muscles): suppressed
ischaemia-reperfusion damage (skeletal muscles): reduced

α-tocopherol level in the cell-associated aortic endothelium (lipidperoxidation; 0.5 mg/day via central vein catheter for 3 days): significant increase
Molecule: Cc1c(C)c2c(c(C)c1O)CCC(C)(CCCC(C)CCCC(C)CCCC(C)C)O2 (racemic) [all-rac-α-tocopherol, 2,5,7, 8 tetramethyl-2-(4′,8′,12′-trimethyltridecyl)chroman-6-ol]
effectiveness of 1 g corresponds to that of RRR-α-tocopherol [1]: 0.74 g

Molecule: Cc1c(C)c2c(c(C)c1O)CCC(C)(CCCC(C)CCCC(C)CCCC(C)C)O2 (single isomer, unassigned) [SRR-stereoisomer, 2,5,7, 8 tetramethyl-2-(4′,8′,12′-trimethyltridecyl)chroman-6-ol]
effectiveness of 1 g corresponds to that of RRR-α-tocopherol [1]: 0.31 g

vitamin E concentration in the plasma (lipidperoxidation; 0.5 mg/day intravenously for 3 days vs 1.0 mg/day orally): significantly higher
Molecule: vitamin E
concentration of TBARS in the plasma (lipidperoxidation; 0.5 mg/day intravenously for 3 days vs control animals): significantly lower
